Data as given in US5985541A, “Peptide capable of being recognized by antibodies recognizing the C33 antigen of hepatitis C virus” (Bio Merieux, priority 1995, dated 1999).
Where no end group is shown, it is not given here.

Columns and labels:
Format in all cases: binding
[1] = tested on: anti-C33 antibodies; assay: Spotscan point substitution tests on the Lys-Phe-Ser-Ser-Arg-Leu-Gly-Ala peptide; conditions: point or double substitution of amino acids
Procedure: In order to determine the degree to which the nature of the various amino acids constituting the Lys-Phe-Ser-Ser-Arg-Leu-Gly-Ala peptide can vary without reducing the antigenic properties of said peptide with respect to anti-C33 antibodies, point substitution tests were performed.
The peptides were synthesized by the method described in the previous example, known as "Spotscan", substituting each amino acid on the peptide at a given position by the other nineteen. These peptides were then tested as described above. The size of each residue can thus be examined and the peptide grouping the best amino acids in each position can then be synthesized.

[2] = tested on: anti-C33 70-13 or 12A1H2 monoclonal antibodies; assay: Spotscan immunoreactivity of overlapping octapeptides with anti-C33 monoclonal antibodies; conditions: monoclonal antibodies 100 nM; β-galactosidase anti-mouse conjugate 1/200; estimated qualitatively
Procedure: The synthesis was conducted on an activated cellulose membrane according to the technique developed by Berg et al. (1989, J. Ann. Chem. Soc., 111, 8024-8026) and available from Cambridge Research Biochemicals (trade name Spotscan). This technique allows simultaneous synthesis of a large number of peptides. The escerified amino acids used in the synthesis have an α-amino group protected by an FMOC group (Nova Biochem) and side groups protected by protective groups such as, for example, trityl, t-butyl ester, or t-butyl ether. The esterified amino acids are dissolved in N-methylpyrrolidone (NMP) at the concentration of […] and 0.9 μl are deposited at the attachment sites of bromphenol blue. After 15 minutes incubation, amino acids are deposited once again, followed by a further incubation of 15 minutes. If the coupling between the two amino acids is done correctly, a color change is observed (transition from blue to yellow-green). After three washings in DMF, an acetylation step is performed by acetic anhydride. Then the terminal amino groups of the peptides undergoing synthesis are deprotected by piperidine in a 20% solution in DMF. The deposition sites are re-stained by a 1% bromophenol blue solution in DMF, washed three times with methanol, and dried. This sequence of operations constitutes one amino acid addition cycle, and this cycle is repeated until synthesis is complete. When all the amino acids have been added, the NH2 terminal group of the last amino acid is deprotected by piperidine in a 20% solution in DMF and acetylated with acetic anhydride. The protective groups of the side chain are removed by a mixture of dichloromethane/trifluoroacetic acid/triisobutylsilane (5 ml/5 ml/250 μl). The immunoreactivity of the peptides thus synthesized can then be tested, for example, by ELISA.
After synthesis of the various octapeptides, the cellulose membrane is rinsed with methanol, washed in TBS (0.1 M Tris, pH 7.2) then incubated overnight at room temperature in saturation buffer (available from Cambridge Research Biochemicals). After several washings with TBS-T (0.1 M Tris, pH 7.2-0.05% Tween 20), the membrane is placed in contact with a solution of anti-C33 70-13 or 12A1H2 monoclonal antibodies (100 nM), and incubated for four hours at room temperature. After three washings with TBS-T, the anti-mouse-immunoglobulin conjugate labeled with β-galactosidase (available from Cambridge Research Biochemicals) is added to a 1/200 dilution and these materials are incubated for two hours at room temperature. After several washings of the membrane with 0.05% TBS-Tween and PBS, the immunoreactivity at the various spots is developed by adding a solution of substrate (5-bromo-4-chloro-3-indoyl-β-D-galactopyranoside in PBS containing magnesium chloride and potassium ferricyanide) and incubating for ten to forty minutes. The color of the spots is estimated qualitatively on a numerical scale from 0 to 5.

[3] = tested on: mixture of human sera from patients infected by HCV (anti-C33 antibodies); assay: Spotscan immunoreactivity of overlapping octapeptides with mixture of human sera; conditions: 1/50 dilution of human sera mixture; anti-human-immunoglobulin conjugate 1/200

| Sequence | response compared with the Lys-Phe-Ser-Ser-Arg-Leu-Gly-Ala peptide [1] | color of the spots (immunoreactivity) [2] | color of the spots (immunoreactivity) [3] |
| --- | --- | --- | --- |
| KFSSGLGA [SEQ ID NO: 32] | better response | – | – |
| KFSSPLGA [SEQ ID NO: 33] | better response | – | – |
| KASSYLGA [SEQ ID NO: 36] | advantageously | – | – |
| KFSSYLGA [SEQ ID NO: 34] | better response | – | – |
| DGAKFSSR | – | first color | – |
| KHSSYLGA [SEQ ID NO: 37] | advantageously | – | – |
| FSSRLGAA | – | maximum | maximum color |
| SRLGAAGA | – | very slight coloration | – |
| RLGAAGAE | – | disappears completely | – |
| KFSSRLGA | – | maximum | – |
| KYSSRLGA [SEQ ID NO: 35] | equivalent response | – | – |
